Earlier results in patent publication US20230228654A1, “Blood Sampling Device and Method for PEth Measurement” (CAPITAINER AB, priority 2020, published 2023).

Tested on: PLD
Settings: Schröck et al, Alcohol 2018; cited from earlier work

Question: With O=C(NCCN1CCC(n2c(=O)[nH]c3ccccc32)CC1)c1cc2cc(F)ccc2[nH]1 [FIPI, 5-fluoro-2-indolyl-deschlorohalopemide] as the compound, how does the “potency as PLD inhibitor” value read?
Answer: low potency

Question: For O=C(NCCN1CCC(n2c(=O)[nH]c3cc(Cl)ccc32)CC1)c1ccc(F)cc1 [halopemide], which “potency as PLD inhibitor” value is on record?
Answer: low potency
